Test results from US20070299136A1, “Crystalline and Amorphous Forms of Efaproxiral Sodium” (priority 2004, published 2007).

Columns and labels:
Format in all cases: physicochemical
[1] = Moisture balance / relative humidity exposure of efaproxiral sodium solid forms; settings: for solid form after relative humidity is decreased to 5%: RH lowered to about 5% RH, sodium salt
Method: Approximately 100 mg of efaproxiral sodium Form A was placed in a 20 mL glass vial. The vial was placed, uncapped, in an ambient temperature relative humidity jar at 75% relative humidity for approximately 24 hours.
A quantity of Form A was placed on a weigh pan at about 0% relative humidity (RH). The RH was slowly raised to about 95% (adsorption) and was then lowered back to about 5% RH (desorption). The weight of the solid material was measured throughout. The results are depicted in FIG. 10. […] The resulting Form I loses slightly less than 4 moles of water as the humidity is further lowered to about 5% RH.

[2] = Solid form remaining after heating or drying (XRPD)
Method: XRPD analyses were carried out on a Shimadzu XRD-6000 X-ray powder diffractometer using Cu Kα radiation. The instrument is equipped with a long fine focus X-ray tube. The tube voltage and amperage were set at […] and 40 mA, respectively. The divergence and scattering slits were set at 1° and the receiving slit was set at 0.15 mm. Diffracted radiation was detected by a […] scintillation detector. A theta-two theta continuous scan at 3′/min (0.4 sec/0.02° step) from 2.5 to 40 °2θ was used. A silicon standard was analyzed each day to check the instrument alignment. Samples were analyzed with an aluminum/silicon sample holder.
Efaproxiral sodium Form A (1125.7 mg) was dissolved completely in […] of ethanol at 48° C. Acetone (7600 μL) was slowly added over a one minute period. Form G and Form Q formed in the reactor at this time. After 1 minute 50 seconds, a further 6250 μL of acetone was added and the reactor was allowed to cool to approximately 25° C. and then to approximately 15° C. The solid material in the reactor during this interval was Form Q. After approximately 10 minutes had passed from the initial addition of acetone, the resulting powdery white solid was collected by vacuum filtration, washed with 6000 μL acetone and dried in a 52° C. vacuum oven.

[3] = Thermogravimetric analysis (TGA) of solvated forms, ambient to 165° C.; settings: for TGA weight loss: temperature raised from ambient to 165° C., sodium salt
Method: A screen for polymorphs and solvates of efaproxiral sodium was performed using a variety of crystallization techniques. The resulting polymorphs were analyzed using a number of analytical techniques well known in the art for their ability to differentiate between different polymorphs, including thermogravimetric analysis (TGA), reflectance Fourier transform infrared (FTIR) spectroscopy (see EXAMPLE 2), and X-ray powder diffraction (XRPD) (see EXAMPLE 3). TGA is often very useful for distinguishing between different solid forms of a material because the temperature(s) at which a physical change in a material occurs is usually characteristic of the polymorph or solvate. X-Ray Powder Diffraction (XRPD) is a technique that detects long-range and short-range order in a crystalline material. IR spectroscopy also detects both intramolecular and intermolecular bonding in solids, and further provides information regarding the chemical composition of the crystalline material.

[4] = Form A exposed to approximately 95% humidity

For Cc1cc(C)cc(NC(=O)Cc2ccc(OC(C)(C)C(=O)[O-])cc2)c1.[Na+] [Form A, 2-[4-[2-[(3,5-dimethylphenyl)amino]-2-oxoethyl]phenoxy]-2-methyl-propionic acid, sodium salt], the “water uptake equivalent to weight gain” value [1, 4] was “approximately 7 moles of water/mole efaproxiral sodium”, the weight gain [1, 4] was “approximately 34%” and the “water uptake equivalent to weight gain” value ([1]; Form A incubated at high relative humidity) was “about 4 moles of water/mole efaproxiral sodium”. For the same molecule, the weight gain ([1]; Form A incubated at high relative humidity (75% RH, ambient temperature, approximately 24 hours)) was “approximately 20%”, the “water gained (adsorption)” value ([1]; RH raised from about 0% to about 85% RH, converts to Form I) was “about 4 moles of water/mole efaproxiral sodium” and the “solid form after incubation at high relative humidity” value ([1]; high relative humidity) was “Form I”. The “further water gained (adsorption)” value ([1]; humidity raised further to about 95% RH, converts to Form J) was “about 3 moles of water/mole efaproxiral sodium”.

For Cc1cc(C)cc(NC(=O)Cc2ccc(OC(C)(C)C(=O)[O-])cc2)c1.[Na+] [Form F, 2-[4-[2-[(3,5-dimethylphenyl)amino]-2-oxoethyl]phenoxy]-2-methyl-propionic acid, sodium salt], the “removal of lattice solvent (methanol) by heating” value ([2]; 80° C. for approximately 3 hours) was “can be removed”.

With Cc1cc(C)cc(NC(=O)Cc2ccc(OC(C)(C)C(=O)[O-])cc2)c1.[Na+] [Form I, 2-[4-[2-[(3,5-dimethylphenyl)amino]-2-oxoethyl]phenoxy]-2-methyl-propionic acid, sodium salt] the “solid form after relative humidity is decreased to 5%” value [1] was “amorphous efaproxiral sodium” and the “water lost (desorption)” value ([1]; humidity further lowered to about 5% RH) was “less than 4 moles of water”.

With Cc1cc(C)cc(NC(=O)Cc2ccc(OC(C)(C)C(=O)[O-])cc2)c1.[Na+] [Form J, 2-[4-[2-[(3,5-dimethylphenyl)amino]-2-oxoethyl]phenoxy]-2-methyl-propionic acid, sodium salt] the “solid form after relative humidity is decreased to 5%” value [1] was “Amorphous material” and the “water lost (desorption)” value ([1]; humidity lowered from about 95% to about 20% RH, converts to Form I) was “about 3 moles of water/mole efaproxiral sodium”.

With Cc1cc(C)cc(NC(=O)Cc2ccc(OC(C)(C)C(=O)[O-])cc2)c1.[Na+] [Form P, 2-[4-[2-[(3,5-dimethylphenyl)amino]-2-oxoethyl]phenoxy]-2-methyl-propionic acid, sodium salt] the “solid form remaining after heating (XRPD)” value ([2]; heated to 156° C.) was “Form A”, the “solvent loss equivalent to TGA weight loss” value ([3]; ambient to 165° C.) was “about 1 mole of ethanol per mole of efaproxiral sodium” and the TGA weight loss [3] was “approximately 10.6%”.

For Cc1cc(C)cc(NC(=O)Cc2ccc(OC(C)(C)C(=O)[O-])cc2)c1.[Na+] [Form Q, 2-[4-[2-[(3,5-dimethylphenyl)amino]-2-oxoethyl]phenoxy]-2-methyl-propionic acid, sodium salt], the “solid form after drying” value ([2]; 52° C. vacuum oven, 14 hours of drying) was “Form Q”, the “solid form after drying” value ([2]; 52° C. vacuum oven, 32 hours of drying) was “Form Q” and the “solid form after drying” value ([2]; dried at 70° C. under vacuum) was “Form B”. For the same molecule, the “solid form remaining after heating (XRPD)” value ([2]; heated to about 165° C.) was “Form A”, the “solvent loss equivalent to TGA weight loss” value ([3]; ambient to about 165° C.) was “½ to about ⅓” and the TGA weight loss [3] was “approximately 5.7%”.
